Measurements published in the supplement of paper PMC11451515.

Experiments:
Conditions in all cases: 48 h
NOMO1 [1] = assay: cell viability relative to DMSO control; higher = less cytotoxic
In short: (§1)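 Cells were incubated for 48 h at 37°C before CellTiter-Glo One luminescence was read. The cells were NOMO1 or SEM (500 cells/well) or P12-Ichikawa (1000 cells/well) leukemia cells, adapted for at least four passages in each medium and seeded in 1536-well plates (5 μl). Dosing used library compounds in DMSO applied by pin over 11 threefold points, 47 μM to 0.79 nM. Viability is the per-plate percentage of DMSO wells, with cell-free wells as background.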

P12-Ichikawa [2] = assay: as above
In short: as §1

SEM cells [3] = assay: as above
In short: as §1

P12-Ichikawa [4] = assay: AUC of viability dose-response curve (% viability x log10 dose units); higher = less sensitive
In short: (§2)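 Library compounds in DMSO were applied for 48 h at 37°C at 11 threefold doses (47 μM to 0.79 nM) to medium-adapted leukemia cells in 1536-well plates holding 500 or 1000 cells/well. Luminescence from CellTiter-Glo One was normalised plate by plate against DMSO and cell-free wells. Area under the curve came from trapezoidal integration of a log-logistic fit, after scaling curves that rose above full viability and discarding those that failed quality control. The fit had four parameters and used log10 doses.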

SEM cells [5] = assay: as above
In short: as §2

NOMO1 [6] = assay: as above
In short: as §2

C[N]1N=CC=C1C/2=C(\C)N(C(=O)C(=C2)/C(=O)NCC3=NC=C(C=C3)[S+](C)([O-])=O)C4=CC=CC(=C4)C(F)(F)F
cell viability [%]
Conditions | NOMO1 [1] | P12-Ichikawa [2] | SEM cells [3]
HPLM + 10% dialyzed FBS, 0.000781 µM | – | 107 | 96
HPLM + 10% dialyzed FBS, 0.00234 µM | – | 104 | 98.3
HPLM + 10% dialyzed FBS, 0.00702 µM | – | 106 | 100
HPLM + 10% dialyzed FBS, 0.0211 µM | – | 104 | 103
HPLM + 10% dialyzed FBS, 0.0632 µM | – | 107 | 105
HPLM + 10% dialyzed FBS, 0.19 µM | – | 107 | 103
HPLM + 10% dialyzed FBS, 0.569 µM | – | 105 | 99.5
HPLM + 10% dialyzed FBS, 1.71 µM | – | 101 | 105
HPLM + 10% dialyzed FBS, 5.12 µM | – | 98.3 | 91.2
HPLM + 10% dialyzed FBS, 15.4 µM | – | 96.8 | 95.4
HPLM + 10% dialyzed FBS, 46.1 µM | – | 88.5 | 77.9
RPMI 5 mM glucose + 10% FBS, 0.000781 µM | 105 | 105 | –
RPMI 5 mM glucose + 10% FBS, 0.00234 µM | 127 | 102 | –
RPMI 5 mM glucose + 10% FBS, 0.00702 µM | 98.9 | 109 | –
RPMI 5 mM glucose + 10% FBS, 0.0211 µM | 107 | 109 | –
RPMI 5 mM glucose + 10% FBS, 0.0632 µM | 118 | 112 | –
RPMI 5 mM glucose + 10% FBS, 0.19 µM | 102 | 93 | –
RPMI 5 mM glucose + 10% FBS, 0.569 µM | 102 | 106 | –
RPMI 5 mM glucose + 10% FBS, 1.71 µM | 97.5 | 97.3 | –
RPMI 5 mM glucose + 10% FBS, 5.12 µM | 100 | 92 | –
RPMI 5 mM glucose + 10% FBS, 15.4 µM | 96.2 | 91.1 | –
RPMI 5 mM glucose + 10% FBS, 46.1 µM | 93.5 | 99.2 | –
RPMI 5 mM glucose + 10% dialyzed FBS, 0.000781 µM | 99 | 108 | 90
RPMI 5 mM glucose + 10% dialyzed FBS, 0.00234 µM | 106 | 105 | 105
RPMI 5 mM glucose + 10% dialyzed FBS, 0.00702 µM | 101 | 112 | 120
RPMI 5 mM glucose + 10% dialyzed FBS, 0.0211 µM | 113 | 105 | 126
RPMI 5 mM glucose + 10% dialyzed FBS, 0.0632 µM | 111 | 106 | 115
RPMI 5 mM glucose + 10% dialyzed FBS, 0.19 µM | 123 | 95 | 112
RPMI 5 mM glucose + 10% dialyzed FBS, 0.569 µM | 95.7 | 110 | 108
RPMI 5 mM glucose + 10% dialyzed FBS, 1.71 µM | 79.7 | 103 | 115
RPMI 5 mM glucose + 10% dialyzed FBS, 5.12 µM | 79.7 | 102 | 100
RPMI 5 mM glucose + 10% dialyzed FBS, 15.4 µM | 90.1 | 91.7 | 107
RPMI 5 mM glucose + 10% dialyzed FBS, 46.1 µM | 103 | 97.5 | 76

AUC of viability dose-response curve
Conditions | HPLM + 10% dialyzed FBS | RPMI 5 mM glucose + 10% FBS | RPMI 5 mM glucose + 10% dialyzed FBS
P12-Ichikawa [4] | 462 | 454 | 455
SEM cells [5] | 466 | 453 | 468

NC(=O)c1noc([C@H](CCCC2CCCCC2)CC(=O)NO)n1
AUC of viability dose-response curve
Conditions | NOMO1 [6] | P12-Ichikawa [4] | SEM cells [5]
HPLM + 10% dialyzed FBS | 431 | 441 | 428
RPMI 5 mM glucose + 10% FBS | 424 | 422 | 414
RPMI 5 mM glucose + 10% dialyzed FBS | 441 | 421 | 429

CC/1=C(\CCN2CCC(CC2)C3=NOC4=C3C=CC(=C4)F)C(=O)N/5CCCCC5=N1
cell viability [%], HPLM + 10% dialyzed FBS
Conditions | P12-Ichikawa [2] | SEM cells [3]
0.000781 µM | 125 | 102
0.00234 µM | 120 | 91.1
0.00702 µM | 122 | 106
0.0211 µM | 118 | 103
0.0632 µM | 130 | 122
0.19 µM | 124 | 124
0.569 µM | 127 | 72.9
1.71 µM | 116 | 45.9
5.12 µM | 126 | 112
15.4 µM | 133 | 115
46.1 µM | 127 | 110

AUC of viability dose-response curve
Conditions | NOMO1 [6] | P12-Ichikawa [4] | SEM cells [5]
HPLM + 10% dialyzed FBS | 457 | 463 | 475
RPMI 5 mM glucose + 10% FBS | 477 | 457 | 473
RPMI 5 mM glucose + 10% dialyzed FBS | 472 | 476 | 468

COC(=O)N[C@H](C(=O)N1CCC[C@H]1c1ncc(-c2ccc(-c3ccc(-c4cnc([C@@H]5CCCN5C(=O)[C@@H](NC(=O)OC)C(C)C)[nH]4)cc3)cc2)[nH]1)C(C)C
SEM cells [3], HPLM + 10% dialyzed FBS
Conditions | cell viability [%]
0.000781 µM | 90.4
0.00234 µM | 116
0.00702 µM | 132
0.0211 µM | 125
0.0632 µM | 129
0.19 µM | 126
0.569 µM | 117
1.71 µM | 131
5.12 µM | 133
15.4 µM | 126
46.1 µM | 98.3

AUC of viability dose-response curve
Conditions | NOMO1 [6] | P12-Ichikawa [4] | SEM cells [5]
HPLM + 10% dialyzed FBS | 437 | 473 | 468
RPMI 5 mM glucose + 10% FBS | 458 | 474 | 468
RPMI 5 mM glucose + 10% dialyzed FBS | 470 | 473 | 460

CC[C@H]1OC(=O)[C@H](C)[C@@H](O[C@H]2C[C@@](C)(OC)[C@@H](O)[C@H](C)O2)[C@H](C)[C@@H](O[C@@H]2O[C@H](C)C[C@H](N(C)C)[C@H]2O)[C@](C)(O)C[C@@H](C)CN(C)[C@H](C)[C@@H](O)[C@]1(C)O
SEM cells [3], HPLM + 10% dialyzed FBS
Conditions | cell viability [%]
0.000781 µM | 85.1
0.00234 µM | 122
0.00702 µM | 124
0.0211 µM | 129
0.0632 µM | 133
0.19 µM | 127
0.569 µM | 149
1.71 µM | 119
5.12 µM | 129
15.4 µM | 133
46.1 µM | 96.6

AUC of viability dose-response curve
Conditions | NOMO1 [6] | P12-Ichikawa [4] | SEM cells [5]
HPLM + 10% dialyzed FBS | 458 | 458 | 458
RPMI 5 mM glucose + 10% FBS | 419 | 452 | 458
RPMI 5 mM glucose + 10% dialyzed FBS | 446 | 459 | 467

CCCCC[C@H](O)/C=C/[C@H]1[C@H](O)CC(=O)[C@@H]1CCCCCCC(=O)O
AUC of viability dose-response curve
Conditions | NOMO1 [6] | P12-Ichikawa [4] | SEM cells [5]
HPLM + 10% dialyzed FBS | 412 | 464 | 402
RPMI 5 mM glucose + 10% FBS | 455 | 445 | 399
RPMI 5 mM glucose + 10% dialyzed FBS | 417 | 453 | 409

CSCC[C@H](NC(=O)[C@H](Cc1c[nH]c2ccccc12)NC(=O)CCNC(=O)OC(C)(C)C)C(=O)N[C@@H](CC(=O)O)C(=O)N[C@@H](Cc1ccccc1)C(N)=O
AUC of viability dose-response curve
Conditions | NOMO1 [6] | P12-Ichikawa [4] | SEM cells [5]
HPLM + 10% dialyzed FBS | 440 | 470 | 460
RPMI 5 mM glucose + 10% FBS | 453 | 464 | 461
RPMI 5 mM glucose + 10% dialyzed FBS | 456 | 470 | 459

Cc1ncc(-c2ccnc(Nc3ccc([S+](C)(=O)[O-])cc3)n2)n1C(C)C
AUC of viability dose-response curve
Conditions | NOMO1 [6] | P12-Ichikawa [4] | SEM cells [5]
HPLM + 10% dialyzed FBS | 400 | 437 | 367
RPMI 5 mM glucose + 10% FBS | 396 | 412 | 357
RPMI 5 mM glucose + 10% dialyzed FBS | 389 | 416 | 380

CCCCCCCCCCCCc1ccc([S+](=O)([O-])Nc2nncs2)cc1
AUC of viability dose-response curve
Conditions | NOMO1 [6] | P12-Ichikawa [4] | SEM cells [5]
HPLM + 10% dialyzed FBS | 390 | 411 | 447
RPMI 5 mM glucose + 10% FBS | 443 | 460 | 360
RPMI 5 mM glucose + 10% dialyzed FBS | 452 | 451 | 415

OCCN1C[C@H](O)[C@@H](O)[C@H](O)[C@H]1CO
SEM cells [3], HPLM + 10% dialyzed FBS
Conditions | cell viability [%]
0.000781 µM | 93.6
0.00234 µM | 116
0.00702 µM | 129
0.0211 µM | 118
0.0632 µM | 86.6
0.19 µM | 114
0.569 µM | 138
1.71 µM | 125
5.12 µM | 134
15.4 µM | 136
46.1 µM | 123

AUC of viability dose-response curve
Conditions | NOMO1 [6] | P12-Ichikawa [4] | SEM cells [5]
HPLM + 10% dialyzed FBS | 296 | 365 | 432
RPMI 5 mM glucose + 10% FBS | 266 | 371 | 417
RPMI 5 mM glucose + 10% dialyzed FBS | 296 | 377 | 384

FC(F)(F)c1ccc(CNc2ccc(Cc3c[nH]c4ncc(Cl)cc34)cn2)cn1
AUC of viability dose-response curve
Conditions | HPLM + 10% dialyzed FBS | RPMI 5 mM glucose + 10% FBS | RPMI 5 mM glucose + 10% dialyzed FBS
P12-Ichikawa [4] | 268 | 367 | 370
SEM cells [5] | 317 | 245 | 314

NCCc1c[nH]cn1
AUC of viability dose-response curve
Conditions | NOMO1 [6] | P12-Ichikawa [4] | SEM cells [5]
HPLM + 10% dialyzed FBS | 466 | 456 | 473
RPMI 5 mM glucose + 10% FBS | 460 | 449 | 437
RPMI 5 mM glucose + 10% dialyzed FBS | 444 | 461 | 432

COc1c(O)cc2c(c1O)[C@@H]1O[C@H](CO)[C@@H](O)[C@H](O)[C@H]1OC2=O
AUC of viability dose-response curve
Conditions | NOMO1 [6] | P12-Ichikawa [4] | SEM cells [5]
HPLM + 10% dialyzed FBS | 419 | 432 | 431
RPMI 5 mM glucose + 10% FBS | 448 | 432 | 394
RPMI 5 mM glucose + 10% dialyzed FBS | 454 | 427 | 409
